Results from ChEMBL document CHEMBL4622888, “Modified Fusicoccane-Type Diterpenoids from Alternaria brassicicola” (J Nat Prod, 2020).
pIC50: −log10 of the molar value.

Tests used:
OVCAR = assay: Cytotoxicity against human OVCAR cells after 48 hrs by MTT assay; type: functional, cell-based
RAW264.7 = assay: Antiinflammatory activity in mouse RAW264.7 cells assessed as inhibition of LPS-induced NO production measured after 18 hrs by Griess assay; type: functional, cell-based; conditions: RAW264.7, 18 h
Hep 3B2 = assay: Cytotoxicity against human Hep3B cells after 48 hrs by MTT assay; type: functional, cell-based
HeLa = assay: Cytotoxicity against human HeLa cells after 48 hrs by MTT assay; type: functional, cell-based
MDA-MB-231 = assay: Cytotoxicity against human MDA-MB-231 cells after 48 hrs by MTT assay; type: functional, cell-based; conditions: MDA-MB-231, 48 h
L02 = assay: Cytotoxicity against human LO2 cells after 48 hrs by MTT assay; type: cell-based; conditions: l02, 48 h
HT-29 = assay: Cytotoxicity against human HT-29 cells after 48 hrs by MTT assay; type: functional, cell-based; conditions: HT-29, 48 h

| SMILES | pIC50 (OVCAR) | pIC50 (RAW264.7) | pIC50 (Hep 3B2) | pIC50 (HeLa) | pIC50 (MDA-MB-231) | Activity (L02) | pIC50 (HT-29) |
| --- | --- | --- | --- | --- | --- | --- | --- |
| CC(C)C1=C2C[C@H](O)[C@H](C)[C@@H]3CCC(=O)/C3=C/[C@@]2(C)[C@@H](O)C1 | 4.42 to 4.60 | < 4.40 | 4.42 to 4.60 | 4.42 to 4.60 | 4.42 to 4.60 | Non-Toxic | 4.42 to 4.60 |
| CC(C)C1=C2C[C@@H]3O[C@@H]([C@H]4C(=O)CC[C@H]4[C@H]3C)[C@@]2(C)[C@@H](O)C1 | 4.42 to 4.60 | < 4.40 | 4.42 to 4.60 | 4.42 to 4.60 | 4.42 to 4.60 | Non-Toxic | 4.42 to 4.60 |
| COCC1=C2C[C@@]3(C)C(=O)C=C(C(C)C)[C@]34C[C@H](O)[C@H](C)[C@@]2(CC1)O4 | – | < 4.40 | – | – | – | – | – |
| CC(C)C1=C2C[C@H](O)[C@H](C)C3=C(C(=O)CC3)[C@H](O)[C@@]2(C)CC1 | – | < 4.40 | – | – | – | – | – |
| COC[C@@]1(O)CC[C@H]2[C@@H](C)[C@@H](O)CC3=C(C(C)C)CC[C@]3(C)[C@H]3O[C@@]231 | 4.42 to 4.60 | < 4.40 | 4.42 to 4.60 | 4.42 to 4.60 | 4.42 to 4.60 | Non-Toxic | 4.42 to 4.60 |
| COCC1=C2[C@@H](CC1)[C@@H](C)[C@@H](O)CC1=C(C(C)C)C(=O)C[C@]1(C)[C@H]2O | – | < 4.40 | – | – | – | – | – |
| COCC1=C2[C@@H](CC1)[C@@H](C)[C@@H](O)CC1=C(C(C)C)CC[C@]1(C)[C@H]2O | 4.42 to 4.60 | 4.61 | 4.42 to 4.60 | 4.42 to 4.60 | 4.42 to 4.60 | Non-Toxic | 4.42 to 4.60 |
